From paper PMC12123037, “Cleavage of CAD by caspase-3 determines the cancer cell fate during chemotherapy” (Nature Communications, 2025)

Target: T1, CAD (GFP-CAD; assayed as GFP-CAD-D1371A) (Homo sapiens, UniProt P27708, D1371A)
T1 construct: full-length CAD subcloned into Not I/Bgl II sites of pEGFP-N1-His (GFP fusion, GFP kept); expressed in HEK-293T; RIPA lysate diluted 150x in MST buffer, not purified
Test: microscale thermophoresis, GFP fusion in diluted HEK-293T lysate
Type: binding
Description: microscale thermophoresis, GFP fusion in diluted HEK-293T lysate on CAD (GFP-CAD; assayed as GFP-CAD-D1371A) | direct interaction between RMY-186 and CAD-D1371A protein in vitro, with a Kd of […]

T1 sequence (P27708 whole entry D1371A, the tested form may be a part): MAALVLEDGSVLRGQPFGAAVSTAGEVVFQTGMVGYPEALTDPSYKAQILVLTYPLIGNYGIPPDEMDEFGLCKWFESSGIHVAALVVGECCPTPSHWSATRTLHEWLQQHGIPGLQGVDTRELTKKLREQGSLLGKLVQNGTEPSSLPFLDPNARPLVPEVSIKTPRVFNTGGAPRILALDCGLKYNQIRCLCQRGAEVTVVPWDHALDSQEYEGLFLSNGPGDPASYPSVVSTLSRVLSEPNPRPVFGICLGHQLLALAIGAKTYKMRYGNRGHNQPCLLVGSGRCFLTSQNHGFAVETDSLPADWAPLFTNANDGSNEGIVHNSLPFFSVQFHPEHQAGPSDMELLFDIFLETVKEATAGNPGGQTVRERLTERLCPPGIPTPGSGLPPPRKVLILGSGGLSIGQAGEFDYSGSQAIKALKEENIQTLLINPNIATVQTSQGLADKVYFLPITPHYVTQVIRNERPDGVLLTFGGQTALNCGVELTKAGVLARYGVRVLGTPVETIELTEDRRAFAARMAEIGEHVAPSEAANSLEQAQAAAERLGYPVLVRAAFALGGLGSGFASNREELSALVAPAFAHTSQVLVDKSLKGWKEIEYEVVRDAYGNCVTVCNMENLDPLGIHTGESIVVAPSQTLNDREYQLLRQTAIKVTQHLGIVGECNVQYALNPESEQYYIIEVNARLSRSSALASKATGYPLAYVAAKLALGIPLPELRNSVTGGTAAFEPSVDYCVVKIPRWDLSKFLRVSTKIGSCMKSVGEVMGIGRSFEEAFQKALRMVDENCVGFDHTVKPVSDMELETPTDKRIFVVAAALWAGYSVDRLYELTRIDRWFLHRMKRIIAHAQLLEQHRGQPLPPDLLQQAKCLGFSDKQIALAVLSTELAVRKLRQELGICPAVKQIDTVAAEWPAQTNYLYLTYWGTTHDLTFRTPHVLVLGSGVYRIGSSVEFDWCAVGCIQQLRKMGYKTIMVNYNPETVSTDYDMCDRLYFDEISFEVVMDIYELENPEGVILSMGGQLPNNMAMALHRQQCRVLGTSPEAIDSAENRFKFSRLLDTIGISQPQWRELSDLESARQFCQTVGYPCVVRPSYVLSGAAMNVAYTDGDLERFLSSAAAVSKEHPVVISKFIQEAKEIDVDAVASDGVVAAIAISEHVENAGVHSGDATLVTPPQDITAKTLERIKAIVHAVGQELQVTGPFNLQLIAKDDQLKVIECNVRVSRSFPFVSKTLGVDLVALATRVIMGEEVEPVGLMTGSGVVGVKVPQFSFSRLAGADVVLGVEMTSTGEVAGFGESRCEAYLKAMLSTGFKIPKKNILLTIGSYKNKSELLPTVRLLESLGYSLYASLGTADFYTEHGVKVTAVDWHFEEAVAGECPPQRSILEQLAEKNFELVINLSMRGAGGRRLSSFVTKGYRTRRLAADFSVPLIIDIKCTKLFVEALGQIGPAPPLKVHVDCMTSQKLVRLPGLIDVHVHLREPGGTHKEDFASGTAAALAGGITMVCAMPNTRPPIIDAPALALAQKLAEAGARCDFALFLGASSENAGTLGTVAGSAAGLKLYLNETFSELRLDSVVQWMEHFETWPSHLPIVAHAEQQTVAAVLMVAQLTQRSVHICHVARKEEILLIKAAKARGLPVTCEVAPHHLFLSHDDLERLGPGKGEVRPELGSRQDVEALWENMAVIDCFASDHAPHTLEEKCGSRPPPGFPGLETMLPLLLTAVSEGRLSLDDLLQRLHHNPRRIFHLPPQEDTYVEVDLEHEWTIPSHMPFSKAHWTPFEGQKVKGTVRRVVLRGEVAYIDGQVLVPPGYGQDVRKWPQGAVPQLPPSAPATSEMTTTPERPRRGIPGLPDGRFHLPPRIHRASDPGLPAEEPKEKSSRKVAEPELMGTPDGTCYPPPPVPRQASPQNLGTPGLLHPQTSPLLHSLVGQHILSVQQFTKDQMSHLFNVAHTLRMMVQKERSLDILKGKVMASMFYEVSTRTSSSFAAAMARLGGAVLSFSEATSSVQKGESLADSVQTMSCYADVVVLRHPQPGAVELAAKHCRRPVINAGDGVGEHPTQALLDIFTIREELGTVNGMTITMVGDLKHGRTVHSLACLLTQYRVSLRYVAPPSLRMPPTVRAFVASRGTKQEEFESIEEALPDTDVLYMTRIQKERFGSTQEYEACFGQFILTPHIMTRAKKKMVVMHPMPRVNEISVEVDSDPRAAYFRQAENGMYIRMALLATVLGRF

- Kd: 6.78 µM
Compound: O=c1c(O)c(N2CCN(Cc3cccc(Br)c3)CC2)oc2ccccc12 [compound 9, 2-(4-(3-bromobenzyl)-piperazin-1-yl)-3-hydroxy-4H-chromen-4-one]
